Results from patent US20030166018A1, “Methods for identifying agents that modulate mast cell degranulation” (priority 2002, published 2003).

Test system: mast cells
Assay: Radioprotection of mast cells from γ-irradiation-induced apoptosis (anti-annexin V and propidium iodide staining)
Type: cell-based
Details: cultured mast cells from wild type and SWAP-70 ko/ko mice (similar degree in both); 100 ng/ml SCF, with or without IL-3; irradiated 0-160 Gy; FIG. 3B
Text: Analysis of peritoneal fluid by Percol gradient centrifugation used step-gradients (increments 0.005) with densities of Percol in PBS, 2% FCS from 1.07 to 1.09. Cells accumulating in the pellet and those banding at 1.09 and 1.085 densities stained intensively with toluidine blue and with berberine sulfate and are regarded as mature mast cells. Assays for apoptosis used staining of cells with propidium iodide or anti annexin V antibodies as described (Ref. 15). Immunofluorescence and Western blotting were performed as described (Ref. 24).
Mast cells from wild type and SWAP-70^ko/ko mice were cultured in the presence or absence of 100 ng/ml SCF, with or without IL-3, and irradiated with various doses (0-160 Gy). Subsequently, apoptosis was measured by staining with anti-annexin V and propidium iodine. […] This elevated sensitivity was confirmed in a series of irradiation experiments in which mast cells were compared to other primary cell types, including thymocytes, preB cells, and fibroblasts. All of these non-mast cell were of identical sensitivity for γ-irradiation regardless of their SWAP-70 genotype. No increased sensitivity of SWAP-70 deficient mast cells for UV irradiation was observed.

For stem cell factor [SCF], the “protection from γ-irradiation-induced apoptosis” value was 3 fold.
